From patent US7855183B2, “Methods of treatment of a bcl-2 disorder using bcl-2 antisense oligomers” (Genta Incorporated, priority 2000, dated 2010)

Assays:
[1] = tested on: LCLs (EBV-associated lymphoproliferative disease); experiment: Survival in the human-SCID model of PTLD; format: in vivo, mice; settings: for median survival: VP16 15 mg/kg ip q3dx4, G3139 10 mg/kg/d over 12 d ip, rituximab 20 mg/kg ip wklyx4, start 15 days after 20 million LCLs ip, untreated 50 days; for animals remaining tumor-free: monotherapy groups, stated jointly
Excerpt: (§1) The use of the targeted therapies, G3139 ([…], Genta, Inc.) and rituximab, to enhance chemosensitivity in EBV-associated lymphoproliferative disease (LPD) have been explored. EBV+LPDs such as post-transplant lymphoproliferative disorder (PTLD) and AIDS-related lymphoma (ARL) typically express bcl-2 and CD20. […] To determine whether these targeted therapies enhance chemosensitivity in EBV+LPD, the effects of cytotoxic drugs in combination with G3139 or rituximab on proliferation and apoptosis in LCLs were examined. […] To determine whether G3139 or rituximab enhanced the anti-tumor activity of chemotherapy in vivo, the effects of VP16 (15 mg/kg ip q3d×4); G3139 (10 mg/kg/d over 12 d ip q3d) or rituximab (20 mg/kg ip wkly×4); and VP16+G3139 or VP16+rituximab (same doses) on survival in the human-SCID model of PTLD were compared. Treatment was started 15 days after ip injection of 20 million LCLs.

[2] = tested on: LCLs (lymphoblastoid cells); experiment: Proliferation and apoptosis in LCLs with cytotoxic drugs plus G3139 or rituximab; format: cell-based
Excerpt: as §1

Compound	median survival [1] [days]	animals remaining tumor-free [1] [%]	effect in combination with chemotherapy [2]	effect on apoptosis ([2]; alone)	effect on proliferation ([2]; alone)
COc1cc([C@@H]2c3cc4c(cc3[C@@H](O[C@@H]3O[C@@H]5CO[C@@H](C)O[C@H]5[C@H](O)[C@H]3O)[C@H]3COC(=O)[C@H]23)OCO4)cc(OC)c1O [VP16, etoposide]	86	7	–	–	–
rituximab: targeted therapy; EBV+LPDs typically express bcl-2 and CD20	88	7	augmented the effects of chemotherapy	no effect	minimal
